Laboratory results taken from US8772488B2 (Shanghai Institute of Pharmaceutical Industry, priority 2009, dated 2014).

Experiments:
[1] = Solubility of acetic acid solvate (0.1N hydrogen chloride aqueous solution); type: physicochemical; settings: for Solubility (0.1N hydrogen chloride aqueous solution), descriptive term: Chinese Pharmacopoeia 2005 General Notices
Text: Sample Sources: the Same as Example 10
Experimental method: refer to Pharmacopoeia of the People's Republic of China. 2005 ed. Part 2. General Notices.

[2] = cited from earlier work
[3] = Influence factor test (stability under heat, light, high humidity; HPLC purity); type: physicochemical
Protocol: Experimental method: refer to Pharmacopoeia of the People's Republic of China. 2005 ed. Part 2. Appendix XIX C
HPLC conditions: instrument: Agilent 1100
Chromatographic column: Phenomenex Hyperclone 5μ BDS C18
Mobile phase: acetonitrile: KH2PO4 (10 mM)=70:30
Column temperature: 40° C.

[4] = system: platelet aggregation; settings: cited from earlier work

Solubility (0.1N hydrogen chloride aqueous solution), descriptive term [1] | Purity (HPLC area normalization) tR 6.2 ([3]; 0 day) | Purity (HPLC area normalization) tR 6.2 ([3]; 60° C. for 5 days) | Purity (HPLC area normalization) tR 6.2 ([3]; 60° C. for 10 days) | Purity (HPLC area normalization) tR 6.2 ([3]; RH 92.5% 5 days) | Purity (HPLC area normalization) tR 6.2 ([3]; RH 92.5% 10 days) | Purity (HPLC area normalization) tR 6.2 ([3]; light for 5 days) | Purity (HPLC area normalization) tR 6.2 ([3]; light for 10 days) | Compound | Water solubility compared to hydrochloride [2] | Inhibition of platelet aggregation [4] | Solubility compared with prasugrel hydrobromate and hydrochlorate [1] | Stability of crystal A compared with crystal B ([3]; stability test) | Stability compared with X1 and X2 ([3]; under all the conditions of light, 60° C., and RH 92.5%)
degraded | 99.83 | 99.39 | 99.01 | 96.62 | 96.12 | 99.40 | 98.83 | Br.CC(=O)Oc1cc2c(s1)CCN(C(C(=O)C1CC1)c1ccccc1F)C2 (stereo not drawn) [Example X2] | improved |  |  |  | 
slightly soluble | 99.08 | 98.89 | 98.29 | 98.39 | 98.20 | 98.49 | 98.20 | CC(=O)Oc1cc2c(s1)CCN(C(C(=O)C1CC1)c1ccccc1F)C2 (stereo not drawn) [Example X1] |  | good activity |  |  | 
 |  |  |  |  |  |  |  | maleate |  | good activity |  |  | 

Compound | Solubility (0.1N hydrogen chloride aqueous solution), descriptive term [1] | Purity (HPLC area normalization) tR 6.2 ([3]; 0 day) | Purity (HPLC area normalization) tR 6.2 ([3]; 60° C. for 5 days) | Purity (HPLC area normalization) tR 6.2 ([3]; 60° C. for 10 days) | Purity (HPLC area normalization) tR 6.2 ([3]; RH 92.5% 5 days) | Purity (HPLC area normalization) tR 6.2 ([3]; RH 92.5% 10 days) | Purity (HPLC area normalization) tR 6.2 ([3]; light for 5 days) | Purity (HPLC area normalization) tR 6.2 ([3]; light for 10 days) | Water solubility compared to hydrochloride [2] | Inhibition of platelet aggregation [4] | Solubility compared with prasugrel hydrobromate and hydrochlorate [1] | Stability of crystal A compared with crystal B ([3]; stability test) | Stability compared with X1 and X2 ([3]; under all the conditions of light, 60° C., and RH 92.5%)
CC(=O)Oc1cc2c(s1)CCN(C(C(=O)C1CC1)c1ccccc1F)C2 (stereo not drawn) [Example X3, 2-acetoxy-5-(α-cyclopropylcarbonyl-2fluorobenzyl)-4,5,6,7-tetrahydrothieno[3,2-c]pyridine hydrobromate] | easily soluble | 99.84 | 99.72 | 99.46 | 99.65 | 99.50 | 99.56 | 99.57 |  |  | better solubility | better than crystal B | more stable
